Assay results reported in US9315475B2 (MERCK SHARP & DOHME CORP., priority 2011, dated 2016).
One block for each compound: values may come before it.

Tested on: HIV-1 (H9IIIB strain)
Experiment: Antiviral acute infection assay in cell culture (Spread)
Assay type: cell-based
Details: HIV-1 H9IIIB infection of MT-4 human T-lymphoid cells in 10% FBS, mean of at least two independent experiments
Excerpt: Antiviral Assays in Cell Culture (“Spread”)
Acute Infection Assay (“Spread”) data were generated using HIV-1 (H9IIIB strain) infection of MT-4 human T-lymphoid cells in 10% FBS, and according to the methods disclosed by J. P. Vacca et al, “L-735,524: An orally bioavailable human immunodeficiency virus type 1 protease inhibitor,” Proc. Natl. Acad. Sci. USA, Vol. 91, pp. 4096-4100 (April 1994).

[1] = Human immunodeficiency virus 1, T-lymphoid

Compound: NC(=O)OC[C@@H]1CO[C@H](CCc2c(F)cccc2NC(=O)CC(c2ccccc2)c2ccccc2)CN1 [Example 152, [(3S,6R)-6-(2-{2-[(3,3-diphenylpropanoyl)amino]-6-fluorophenyl}ethyl)morpholin-3-yl] methyl carbamate]
EC50 [1]: 88 nM

Compound: O=C(C[C@@H](c1ccc(F)cc1)c1cncc(C(F)(F)F)c1)Nc1cccc(F)c1CC[C@@H]1CN[C@H](COC(=O)NCC(F)(F)F)CO1 [Example 139, [(3S,6R)-6-{2-[2-Fluoro-6-({(3S)-3-(4-fluorophenyl)-3-[5-(trifluoromethyl)pyridin-3-yl]propanoyl}amino)phenyl]ethyl}morpholin-3-yl]methyl (2,2,2-trifluoroethyl)carbamate]
EC50 [1]: 108 nM

Compound: CNC(=O)OC[C@@H]1CO[C@H](CCc2c(F)cncc2NC(=O)CC(c2ccc(F)cc2)c2ccc(F)cc2)CN1 [Example 177, {(3S,6R)-6-[2-(3-{[3,3-bis(4-fluoro-phenyl)propanoyl]amino}-5-fluoropyridin-4-yl)ethyl]morpholin-3-yl}methyl methylcarbamate]
EC50 [1]: 41 nM

Compound: COC(=O)N[C@H](C(=O)Nc1cncc(F)c1CC[C@@H]1CN[C@H](COC(=O)NCC(F)(F)F)CO1)[C@@H](c1ccc(F)cc1)c1cccc(F)c1F [Example 302, (βS)-2,3-difluoro-β-(4-fluorophenyl)-N-(5-fluoro-4-{2-[(2R,5S)-5-({[(2,2,2-trifluoroethyl)carbamoyl]oxy}methyl)morpholin-2-yl]ethyl}pyridin-3-yl)-Nα-(methoxy-carbonyl)-L-phenylalaninamide]
EC50 [1]: 15 nM

Compound: O=C(CC(c1ccc(F)cc1)c1ccc(F)cc1)Nc1cncc(F)c1CC[C@@H]1CN[C@H](COC(=O)NCC2CCCO2)CO1 (stereo partly drawn) [Example 169, {(3S,6R)-6-[2-(3-{[3,3-bis(4-fluoro-phenyl)propanoyl]amino}-5-fluoropyridin-4-yl)ethyl]morpholin-3-yl}methyl (tetrahydrofuran-2-ylmethyl)carbamate]
EC50 [1]: 73 nM

Compound: N#Cc1cccc([C@@H](CC(=O)Nc2cccc(F)c2CC[C@@H]2CN[C@H](COC(=O)NCC(F)(F)F)CO2)c2ccc(F)cc2)c1 [Example 160, {(3S,6R)-6-[2-(2-{[(3S)-3-(3-cyanophenyl)-3-(4-fluorophenyl)propanoyl]amino}-6-fluoro-phenyl)ethyl]morpholin-3-yl}methyl (2,2,2-trifluoroethyl)carbamate]
EC50 [1]: 31 nM

Compound: N[C@H](C(=O)Nc1cncc(F)c1CC[C@@H]1CN[C@H](COC(=O)NCC(F)(F)F)CO1)[C@@H](c1ccc(Cl)cc1)c1cccc(OC(F)(F)F)c1 [Example 98, (βS)-β-(4-Chlorophenyl)-N-(5-fluoro-4-{2-[(2R,5S)-5-({[(2,2,2-trifluoroethyl)carbamoyl]oxy}methyl)morpholin-2-yl]ethyl}pyridin-3-yl)-3-(trifluoromethoxy)-L-phenylalaninamide]
EC50 [1]: 28 nM

Compound: N[C@H](C(=O)Nc1cccc(F)c1CC[C@@H]1CN[C@H](COC(=O)NC2CCOCC2)CO1)C(c1ccc(F)cc1)c1ccc(F)cc1 [Example 223, 4-fluoro-β-(4-fluorophenyl)-N-(3-fluoro-2-{2-[(2R,5S)-5-{[(tetrahydro-2H-pyran-4-ylcarbamoyl)oxy]methyl}morpholin-2-yl]ethyl}phenyl)-L-phenylalaninamide]
EC50 [1]: 1400 nM

Compound: O=C(C[C@@H](c1ccc(F)cc1)c1ccc(OC(F)(F)F)cc1)Nc1cccc(F)c1CC[C@@H]1CN[C@H](COC(=O)NCC(F)(F)F)CO1 [Example 159, [(3S,6R)-6-{2-[2-fluoro-6-({(3R)-3-(4-fluorophenyl)-3-[4-(trifluoro-methoxy)phenyl]propanoyl}amino)phenyl]ethyl}morpholin-3-yl] methyl (2,2,2-trifluoroethyl)carbamate]
EC50: 380 nM

Compound: COC(=O)N[C@H](C(=O)Nc1cccc(F)c1CC[C@@H]1CN[C@H](COC(=O)NCC(F)(F)F)CO1)[C@@H](c1ccc(Cl)cc1)c1ccncc1F [Example 134, (βS)-4-Chloro-β-(3-fluoropyridin-4-yl)-N-(3-fluoro-2-{2-[(2R,5S)-5-({[(2,2,2-trifluoroethyl)carbamoyl]oxy}methyl)morpholin-2-yl]ethyl}phenyl)-Nα-(methoxycarbonyl)-L-phenylalaninamide]
EC50 [1]: 28 nM

Compound: NC(=O)OC[C@@H]1CO[C@H](CCc2c(F)cccc2NC(=O)[C@@H](N)[C@@H](c2ccc(F)cc2)c2cccc(F)c2)CN1 [Example 120, (βS)—N-[2-(2-{(2R,5S)-5-[(Carbamoyloxy)methyl]morpholin-2-yl}ethyl)-3-fluorophenyl]-4-fluoro-β-(3-fluorophenyl)-L-phenylalaninamide]
EC50 [1]: 20 nM

Results, then the compound that gave them:

EC50 [1]: 170 nM
Compound: O=C(CC(F)(F)F)NC[C@@H]1CO[C@H](CCc2c(F)cccc2NC(=O)CC(c2ccc(F)cc2)c2ccc(F)cc2)CN1 [Example 144, N-({(3R,6R)-6-[2-(2-{[3,3-Bis(4-fluorophenyl)propanoyl]amino}-6-fluorophenyl)ethyl]morpholin-3-yl}methyl)-3,3,3-trifluoropropanamide]

EC50 [1]: 240 nM
Compound: COc1ccc([C@H](CC(=O)Nc2cncc(F)c2CC[C@@H]2CN[C@H](COC(=O)NCC(F)(F)F)CO2)c2ccccc2)cc1Cl [Example 179, {(3S,6R)-6-[2-(3-{[(3R)-3-(3-chloro-4-methoxyphenyl)-3-phenylpropanoyl]amino}-5-fluoropyridin-4-yl)ethyl]morpholin-3-yl}methyl (2,2,2-trifluoroethyl)carbamate]

EC50 [1]: 18 nM
Compound: COC(=O)N[C@H](C(=O)Nc1cccc(F)c1OC[C@@H]1CN[C@H](COC(N)=O)CO1)[C@@H](c1ccc(F)cc1)c1cccc(F)c1 [Example 117, (βS)—N-[2-({(2S,5S)-5-[(Carbamoyloxy)methyl]morpholin-2-yl}methoxy)-3-fluorophenyl]-4-fluoro-β-(3-fluorophenyl)-Nα-(methoxycarbonyl)-L-phenylalaninamide]

EC50 [1]: 320 nM
Compound: CS(=O)(=O)c1ccc([C@@H](CC(=O)Nc2cccc(F)c2CC[C@@H]2CN[C@H](COC(=O)NCC(F)(F)F)CO2)c2cccc(F)c2)cc1 [Example 113, [(3S,6R)-6-{2-[2-Fluoro-6-({(3R)-3-(3-fluorophenyl)-3-[4-(methylsulfonyl)phenyl]propanoyl}amino)phenyl]ethyl}morpholin-3-yl]methyl (2,2,2-trifluoroethyl)carbamate]

EC50 [1]: 40 nM
Compound: O=C(CC(F)(F)F)NC[C@@H]1CO[C@H](CCc2c(F)cncc2NC(=O)CC(c2ccc(F)cc2)c2ccc(F)cc2)CN1 [Example 143, N-({(3R,6R)-6-[2-(3-{[3,3-Bis(4-fluorophenyl)propanoyl]amino}-5-fluoropyridin-4-yl)ethyl]morpholin-3-yl}methyl)-3,3,3-trifluoropropanamide]

EC50 [1]: 200 nM
Compound: COC(=O)N[C@H](C(=O)Nc1cccc(F)c1CC[C@@H]1CN[C@H](COC(=O)NCC(F)(F)F)CO1)[C@@H](c1ccncc1)c1ccc(F)cc1 [Example 112, (βR)-4-Fluoro-N-(3-fluoro-2-{2-[(2R,5S)-5-({[(2,2,2-trifluoroethyl)carbamoyl]oxy}methyl)morpholin-2-yl]ethyl}phenyl)-Nα-(methoxycarbonyl)-β-pyridin-4-yl-L-phenylalaninamide]

EC50 [1]: 44 nM
Compound: N[C@H](C(=O)Nc1cccc(F)c1CC[C@@H]1CN[C@H](COC(=O)N[C@H]2CCCOC2)CO1)C(c1ccc(F)cc1)c1ccc(F)cc1 [Example 122, 4-Fluoro-β-(4-fluorophenyl)-N-(3-fluoro-2-{2-[(2R,5S)-5-({[(3S)-tetrahydro-2H-pyran-3-ylcarbamoyl]oxy}methyl)morpholin-2-yl]ethyl}phenyl)-L-phenylalaninamide]

EC50 [1]: 60 nM
Compound: Cc1cc(C)n(CCNC(=O)OC[C@@H]2CO[C@H](CCc3c(F)cncc3NC(=O)CC(c3ccc(F)cc3)c3ccc(F)cc3)CN2)n1 [Example 172, {(3S,6R)-6-[2-(3-{[3,3-bis(4-fluoro-phenyl)propanoyl]amino}-5-fluoropyridin-4-yl)ethyl]morpholin-3-yl}methyl [2-(3,5-dimethyl-1H-pyrazol-1-yl)ethyl]carbamate]

EC50 [1]: 39 nM
Compound: O=C(CC(c1ccc(F)cc1)c1ccc(F)cc1)Nc1cncc(F)c1CC[C@@H]1CN[C@H](COC(=O)NC(CO)C2CC2)CO1 (stereo partly drawn) [Example 175, {(3S,6R)-6-[2-(3-{[3,3-bis(4-fluoro-phenyl)propanoyl]amino}-5-fluoropyridin-4-yl)ethyl]morpholin-3-yl}methyl (1-cyclopropyl-2-hydroxyethyl)carbamate]

EC50 [1]: 17 nM
Compound: O=C(C[C@H](c1ccc(F)cc1)c1ccc(Cl)c(F)c1)Nc1cncc(F)c1CC[C@@H]1CN[C@H](COC(=O)NCC(F)(F)F)CO1 [Example 182, {(3S,6R)-6-[2-(3-{[(3R)-3-(4-chloro-3-fluorophenyl)-3-(4-fluoro-phenyl)propanoyl]amino}-5-fluoropyridin-4-yl)ethyl]morpholin-3-yl}methyl (2,2,2-trifluoroethyl)carbamate]

EC50 [1]: 39 nM
Compound: N[C@H](C(=O)Nc1cccc(F)c1CC[C@@H]1CN[C@H](COC(=O)NCC(F)(F)F)CO1)[C@H](c1ccc(Cl)cc1)c1ccc2c(c1)OCO2 [Example 100, {(3S,6R)-6-[2-(2-{[(3R)-3-(1,3-Benzodioxol-5-yl)-3-(4-chlorophenyl)-L-alanyl]amino}-6-fluorophenyl)ethyl]morpholin-3-yl}methyl (2,2,2-trifluoroethyl)carbamate]

EC50 [1]: 340 nM
Compound: COC(=O)N[C@H](C(=O)Nc1cccc(F)c1CC[C@@H]1CN[C@H](COC(=O)NCC(F)(F)F)CO1)[C@H](c1ccccc1)c1ccc(OC)c(Cl)c1 [Example 109, (βR)-3-Chloro-N-(3-fluoro-2-{2-[(2R,5S)-5-({[(2,2,2-trifluoroethyl)carbamoyl]oxy}methyl)morpholin-2-yl]ethyl}phenyl)-Nα-(methoxycarbonyl)-O-methyl-β-phenyl-L-tyrosinamide]
